Source: patent US20240174728A1, “A USE OF A POLYPEPTIDE COMPOUND IN THE PREPARATION OF DRUGS FOR PREVENTING OR TREATING INFLAMMATORY BOWEL DISEASES AND RELATED INTESTINAL FIBROSIS” (Shenzhen Turier Biotech Co., Ltd., priority 2021, published 2024)
Starred links: 1 amine or outer side, 2 acyl side, 3 side chain; linkers in the order of their positions; H or OH if unused. Non-standard residues stand in square brackets, D forms with d. Groups on a side chain read outwards from the residue. Primed or numbered codes have the meaning given here. No end group written: not given here. *: point of attachment. C20 diacid = O=C(O)CCCCCCCCCCCCCCCCCCC(=O)*; Arachidoyl = CCCCCCCCCCCCCCCCCCCC(=O)*; γGlu = O=C(O)[C@H](CCC(=O)[*:2])N[*:1]; Iva = CC[C@](C)(N)C(=O)O; PEG2′ = not defined here; Aib = CC(C)(N)C(=O)O

How the values were obtained:
[1] = tested on: DSS induced acute intestinal fibrosis model of mouse; assay: DSS induced acute intestinal fibrosis model of mouse (Example 2); type: in vivo, Balb/c mice; settings: 3% DSS Day 1-7, compared with model group; for content of serum IL-6 (FIG. 7) / content of serum MMP-12 (FIG. 7) / collagenous fiber of colon tissues, Masson stained slice (FIG. 4A) / colon Ly-6g+ cells (neutrophile granulocyte infiltration), immunohistochemical staining (FIG. 6) / colon mucous layer α-SMA protein expression, immunohistochemical staining (FIG. 5): 120 μg/kg s.c. once/day; for content of serum IL-6 (FIG. 7) / content of serum MMP-12 (FIG. 7): 9th day serum, ##P≤0.01; for colon tissue morphology, HE stained slice (FIG. 3) / blue staining area of colon tissues, area ratio of blue collagen fibers to colon tissue in Masson staining (FIG. 4B): polypeptide 120 μg/kg s.c. or 6-TG 2 mg/kg p.o. once/day; for blue staining area of colon tissues, area ratio of blue collagen fibers to colon tissue in Masson staining (FIG. 4B): #P≤0.05
Excerpt: The DSS in this example is purchased from MP Biomedicals (CAS No.: 9011-18-1), and the positive control compound 6-thioguanine (6-TG) is a compound based on prior art and is purchased from Shanghai Aladdin Biochemical Technology Co., Ltd. (CAS No.: 154-42-7).
(§1) After 7 days of adaptive feeding, 114 Balb/c mice of 6-8 weeks age (purchased from Guangdong Medical Laboratory Animal Center, with weight approx. 16-20 g) are subjected to the experiment. Then randomly put the mice into 19 groups, with 6 mice in each group. The groups are normal group, model group, 6-TG group and polypeptide compound groups 1-16.
Model the 19 groups of mice and administer the drug to them for 8 days. In the 8 days, the normal group is given normal drinking water and is given subcutaneous injection of PBS once every day. From Day 1 to Day 7, the model group drinks 3% DSS and is given subcutaneous injection of PBS once every day. On Day 8, 3% DSS is replaced with normal drinking water and subcutaneous injection of PBS is given once. From Day 1 to Day 7, the 6-TG group drinks 3% DSS and is given 2 mg/kg 6-TG by the means of gavage once every day. On Day 8, 3% DSS is replaced with normal drinking water and 2 mg/kg 6-TG is given by the means of gavage once. From Day 1 to Day 7, the polypeptide compound groups 1-16 drink 3% DSS and are given subcutaneous injection of 120 μg/kg polypeptide compounds 1-16 once every day. On Day 8, 3% DSS is replaced with normal drinking water and subcutaneous injection of 120 μg/kg polypeptide compounds 1-16 is given once.
In the drug administration period, the randomly selected polypeptide compound groups 3, 8, 11, 12, 13 and 14 and the normal group, model group and 6-TG group are used for testing, and the body weight, feces consistency and feces OB of the mice are recorded every day. The GraphPad Prism 8.3.0 software is used to plot the data into a diagram. Feces OB is measured by the benzidine method.
On the 9th day, all mice are killed. The serums and colon tissues of the mice are collected. The colon and cecum of the mice are removed together. The colon length is measured. The GraphPad Prism 8.3.0 software is used to plot the data into a diagram.
The serums of the mice from the randomly selected polypeptide compound groups 3, 8, 11, 12, 13 and 14 of the present invention and the normal group and model group are used for cytokine test.
(§2) The colons of the mice from the randomly selected polypeptide compound groups 3, 8, 11, 12, 13 and 14 and the normal group, model group and 6-TG group in the present invention are taken. Approx. 5 mm of intestinal segment is taken from the distal end of each colon and is fixed in 10% formalin. The specimens are fixed, dehydrated, wrapped in paraffin and sliced (5 μm). Then tissue HE staining, Masson staining, α-SMA α-SMA protein immunohistochemical staining and Ly-6g protein immunohistochemical staining are completed.

[2] = tested on: DSS induced chronic intestinal fibrosis model of mouse; assay: DSS induced chronic intestinal fibrosis model of mouse (Example 3, three cycles); type: in vivo, Balb/c mice; settings: 2% DSS 5 days then water 2 weeks, 3 cycles, 120 μg/kg s.c. once/day, compared with model group; for blue staining area of colon tissues, area ratio of blue collagen fibers to colon tissue in Masson staining (FIG. 11B): #P≤0.05, ##P≤0.01; for content of serum IL-6 (FIG. 13) / content of serum MMP-8 (FIG. 13): serum at end of three cycles
Excerpt: as §1
In the whole process, the normal group is given normal drinking water and is given subcutaneous injection PBS once every day. The model group is first given 2% DSS for 5 days and then given normal drinking water for 2 weeks. This is 1 cycle. The cycle is done 3 times. Subcutaneous injection of PBS is given once every day. The 6-TG group is first given 2% DSS for 5 days and then given normal drinking water for 2 weeks. This is 1 cycle. The cycle is done 3 times. 2 mg/kg 6-TG is given by the means of gavage once every day. The polypeptide compound groups 1-16 are first given 2% DSS for 5 days and then given normal drinking water for 2 weeks. This is 1 cycle. The cycle is done 3 times. Subcutaneous injection of 120 μg/kg polypeptide compounds 1-16 is given once every day.
During the administration period, the polypeptide compound groups 3, 8, 11, 12, 13 and 14 and the normal group, model group and 6-TG group are randomly selected, and the body weight, feces consistency and feces OB of the mice are recorded every day. The GraphPad Prism 8.3.0 software is used to plot the data into a diagram.
After completion of the 3rd cycle, the mice are dissected. The serums and colon tissues of the mice are collected. The colon and cecum are removed together. The colon length is measured. The GraphPad Prism 8.3.0 software is used to plot the data into a diagram.
The serums of the mice from the randomly selected polypeptide compound groups 3, 8, 11, 12, 13 and 14 and the normal group and model group of the present invention are used for cytokine test.
as §2, with “normal” for “normal group, model”, “model” for “6-TG”, “Masson” for “Masson staining, α-SMA α-SMA protein immunohistochemical”, “Fibronectin” for “Ly-6g”

| Substance | content of serum IL-6 (FIG. 7) [1] | content of serum MMP-12 (FIG. 7) [1] | collagenous fiber of colon tissues, Masson stained slice (FIG. 4A) [1] | colon Ly-6g+ cells (neutrophile granulocyte infiltration), immunohistochemical staining (FIG. 6) [1] | colon mucous layer α-SMA protein expression, immunohistochemical staining (FIG. 5) [1] | colon tissue morphology, HE stained slice (FIG. 3) [1] | blue staining area of colon tissues, area ratio of blue collagen fibers to colon tissue in Masson staining (FIG. 4B) [1] | collagenous fiber of colon tissues, Masson stained slice (FIG. 11A) [2] | colon mucous layer Fibronectin protein expression, immunohistochemical staining (FIG. 12) [2] | colon tissue morphology, HE stained slice (FIG. 10) [2] | blue staining area of colon tissues, area ratio of blue collagen fibers to colon tissue in Masson staining (FIG. 11B) [2] | content of serum IL-6 (FIG. 13) [2] | content of serum MMP-8 (FIG. 13) [2] |
| --- | --- | --- | --- | --- | --- | --- | --- | --- | --- | --- | --- | --- | --- |
| His-Aib-Gln-Gly-Thr-Phe-Thr-Ser-Asp-Lys(PEG2-PEG2-CO(CH2)18CH3)-Ser-Lys-Tyr-Leu-Asp-Glu-Arg-Ala-Ala-Gln-Asp-Phe-Iva-Gln-Trp-Leu-Leu-Asp-Gly-Gly-Pro-Ser-Ser-Gly-Aib-Pro-Pro-Pro-Ser-NH2 (H[Aib]QGTFTSDK([PEG2′-PEG2′-Arachidoyl])SKYLDERAAQDF[Iva]QWLLDGGPSSG[Aib]PPPS-NH2; not fully specified; printed as His-Aib-Gln-Gly-Thr-Phe-Thr-Ser-Asp-Lys(PEG2-PEG2-CO(CH2)18CH3)-Ser-Lys-Tyr-Leu-Asp-Glu-Arg-Ala-Ala-Gln-Asp-Phe-Iva-Gln-Trp-Leu-Leu-Asp-Gly-Gly-Pro-Ser-Ser-Gly-Aib-Pro-Pro-Pro-Ser-NH2) [Compound 11] | clearly decreases | clearly decreases | noticeably decrease | clearly decrease | clearly decreased | become intact | noticeably decrease | noticeably decrease | clearly decreased | become intact | noticeably decrease | clearly decreases | clearly decreases |
| His-Aib-Gln-Gly-Thr-Phe-Thr-Ser-Asp-Lys(PEG2-PEG2-γGlu-CO(CH2)18CO2H)-Ser-Lys-Tyr-Leu-Asp-Glu-Arg-Ala-Ala-Gln-Asp-Phe-Iva-Gln-Trp-Leu-Leu-Asp-Gly-Gly-Pro-Ser-Ser-Gly-Aib-Pro-Pro-Pro-Ser-NH2 (H[Aib]QGTFTSDK([PEG2′-PEG2′-γGlu-C20 diacid])SKYLDERAAQDF[Iva]QWLLDGGPSSG[Aib]PPPS-NH2) [Compound 8] | clearly decreases | clearly decreases | noticeably decrease | clearly decrease | clearly decreased | become intact | noticeably decrease | noticeably decrease | clearly decreased | become intact | noticeably decrease | clearly decreases | clearly decreases |
